Data on six compounds can be found in PMC7371993, “Targeting of the C-Type Lectin Receptor Langerin Using Bifunctional Mannosylated Antigens” (Frontiers in Cell and Developmental Biology, 2020).

Assay [1] deals with T1, Langerin S-ECD (Homo sapiens, UniProt Q9UJ71).
T1 construct: The ECD of Langerin (residues 68–328) was overexpressed and purified as previously described; made in house
Put plainly: SPR direct interaction assay on oriented Langerin S-ECD surface. As to conditions: Langerin S-ECD captured via StreptagII on CM3 chip, flow 30 μL/min, same running buffer pH 8, 1:1 fit, apparent Kd, read-out: Kdapp. Type of assay: binding. On the procedure:
To determine the apparent Kd value, direct interaction experiments were executed on a T200 Biacore with a CM3 series S sensor chip. The Langerin ECD in this assay was functionalized with a […] on the N-terminus (Langerin S-ECD), for oriented capture on the sensor chip surface. The flow cells were functionalized with streptactin protein after EDC/NHS activation. Control flow cell 1 was functionalized with BSA, whereas another flow cell was functionalized with 100 μg/mL Langerin S-ECD via tag-specific capture and simultaneous amine coupling as previously described ([Porkolab et al., 2020]). An approximate density of about 2.609 RU was achieved on the chip surface. The compounds were injected in increasing concentrations with a flow rate of 30 μL/min in the previously mentioned running buffer. The data were analyzed in Biacore BIAevaluation software for direct interaction 1:1 calculation to determine the apparent Kd value.

Assay [2] addresses T2, Langerin ECD (Homo sapiens, UniProt Q9UJ71).
T2 construct: The ECD of Langerin (residues 68–328) was overexpressed and purified as previously described; made in house
Put plainly: SPR competition (inhibition) assay with trimeric Langerin ECD. Type of assay: binding. As to conditions: Biacore T200, CM3 chip with BSA-Manα1-3[Manα1-6]Man, Langerin ECD 20 μM, 25 mM Tris-HCl pH 8, 150 mM NaCl, 4 mM CaCl2, 0.05% P20, four parameter fit. As to the method: The ECD of Langerin (residues 68–328) was overexpressed and purified as previously described ([Thépaut et al., 2009]). The SPR competition experiments were performed on a Biacore T200 using a CM3 series S sensor chip. Control flow cell 1 was functionalized with bovine serum albumin (BSA), whereas flow cell 2 and 3 were treated with 60 μg/mL BSA-Man α1-3[Manα1-6]Man (Dextra) in 10 mM NaOAc pH4 (final densities 2.062 and 2.183 RU, respectively). All flow cells were blocked with ethanolamine. […] Langerin ECD (20 μM) was injected at 5 μL/min, with or without inhibitor at increasing concentrations. The data were analyzed in Biacore BIAevaluation software using four parameter equation, and the IC50 was determined.
On the technique in general: Surface plasmon resonance follows binding to a sensor surface in real time, without labels.

T2 sequence (Q9UJ71 68-328): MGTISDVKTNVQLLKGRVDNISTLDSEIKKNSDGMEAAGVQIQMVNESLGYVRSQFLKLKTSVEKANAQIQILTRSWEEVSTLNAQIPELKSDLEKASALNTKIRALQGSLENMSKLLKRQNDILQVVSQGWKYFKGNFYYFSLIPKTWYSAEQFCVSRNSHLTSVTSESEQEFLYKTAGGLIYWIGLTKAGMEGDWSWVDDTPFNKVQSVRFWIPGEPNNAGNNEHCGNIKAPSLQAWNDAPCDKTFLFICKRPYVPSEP
T1 sequence (Q9UJ71 68-328): as above

As to `CC(=O)N[C@@H](CCCCn1cc(CO[C@H]2O[C@H](CO[C@H]3O[C@H](CO)[C@@H](O)[C@H](O)[C@@H]3O)[C@@H](O)[C@H](O[C@H]3O[C@H](CO)[C@@H](O)[C@H](O)[C@@H]3O)[C@@H]2O)nn1)C(=O)NCC(=O)N[C@@H](CCCCn1cc(CO[C@H]2O[C@H](CO[C@H]3O[C@H](CO)[C@@H](O)[C@H](O)[C@@H]3O)[C@@H](O)[C@H](O[C@H]3O[C@H](CO)[C@@H](O)[C@H](O)[C@@H]3O)[C@@H]2O)nn1)C(=O)NCC(=O)N[C@@H](CCCCN)C(N)=O` [Ligand E2], the Kd in assay [1] is 278 µM.

Take `CC(=O)N[C@@H](CCCCn1cc(CO[C@H]2O[C@H](CO[C@H]3O[C@H](CO)[C@@H](O)[C@H](O)[C@@H]3O)[C@@H](O)[C@H](O)[C@@H]2O)nn1)C(=O)NCC(=O)N[C@@H](CCCCn1cc(CO[C@H]2O[C@H](CO[C@H]3O[C@H](CO)[C@@H](O)[C@H](O)[C@@H]3O)[C@@H](O)[C@H](O)[C@@H]2O)nn1)C(=O)NCC(=O)N[C@@H](CCCCN)C(N)=O` [Ligand D2]: the Kd in assay [1] was determined as 16 µM.

Broadly, the IC50 is the point on the concentration scale where inhibition reaches its midpoint. Compound `CC(=O)N[C@@H](CCCCn1cc(CO[C@H]2O[C@H](CO)[C@@H](O)[C@H](O)[C@@H]2O)nn1)C(=O)NCC(=O)N[C@@H](CCCCn1cc(CO[C@H]2O[C@H](CO)[C@@H](O)[C@H](O)[C@@H]2O)nn1)C(=O)NCC(=O)N[C@@H](CCCCN)C(N)=O` [Ligand A2] showed an IC50 in assay [2] of 2420 ± 30 µM.

For the compound `CC(=O)N[C@@H](CCCCn1cc(CO[C@H]2O[C@H](CO)[C@@H](O)[C@H](O)[C@@H]2O[C@H]2O[C@H](CO)[C@@H](O)[C@H](O)[C@@H]2O)nn1)C(=O)NCC(=O)N[C@@H](CCCCn1cc(CO[C@H]2O[C@H](CO)[C@@H](O)[C@H](O)[C@@H]2O[C@H]2O[C@H](CO)[C@@H](O)[C@H](O)[C@@H]2O)nn1)C(=O)NCC(=O)N[C@@H](CCCCN)C(N)=O` [Ligand B2], in assay [2], the IC50 came out at 181 ± 4 µM.

On to `CC(=O)N[C@@H](CCCCn1cc(CO[C@H]2O[C@H](CO)[C@@H](O)[C@H](O)[C@@H]2O[C@H]2O[C@H](CO)[C@@H](O)[C@H](O)[C@@H]2O)nn1)C(=O)NCC(=O)N[C@@H](CCCCN)C(N)=O` [Ligand B1], for which, in assay [2], the IC50 came to 4140 µM.

In assay [2], `CC(=O)N[C@@H](CCCCn1cc(CO[C@H]2O[C@H](CO)[C@@H](O)[C@H](O[C@H]3O[C@H](CO)[C@@H](O)[C@H](O)[C@@H]3O)[C@@H]2O)nn1)C(=O)NCC(=O)N[C@@H](CCCCn1cc(CO[C@H]2O[C@H](CO)[C@@H](O)[C@H](O[C@H]3O[C@H](CO)[C@@H](O)[C@H](O)[C@@H]3O)[C@@H]2O)nn1)C(=O)NCC(=O)N[C@@H](CCCCN)C(N)=O` [Ligand C2] registered an IC50 of 1420 µM.
